Experiments:
LucPpe2m146 = assay: Stability of reagent composition with LucPpe2m146 and detergent (RT, pH 7.0); format: biochemical, Photuris pennsylvanica
Summary of the method: (§1)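 Reagent with 50 μg/ml luciferase, luciferin, MgSO4, buffer and detergent at varying concentrations held at about 23° C; enzyme added just before first read. At timepoints, aliquots mixed 1:1 with media containing ATP and luminescence read immediately (0.5 s/well, triplicate); reaction half-lives and percent of original luminescence derived.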

LucPpy = target: T1, LucPpy (Photinus pyralis, UniProt P08659); assay: Stability of reagent composition with LucPpy and detergent (RT, pH 7.0); format: biochemical; details: for Average Relative Light Units / Percent of Luminescence Remaining: LucPpy
T1 construct: purchased Promega E170A
Summary of the method: as §1

For `CCCCCCCCCCCC[N+](C)(C)C.[Br-]` [DTAB, dodecyltrimethylammonium bromide], the “Average Relative Light Units” value (LucPpe2m146; LucPpe2m146, 0.02%, 1.0 min (head r67)) was 28730.17 rlu, the “Percent of Luminescence Remaining” value (LucPpe2m146; LucPpe2m146, 0.02%, 1.0 min (times of Table I r67)) was 100.00% and the “Average Relative Light Units” value (LucPpe2m146; LucPpe2m146, 0.02%, 34 min (head r67)) was 28596.30 rlu. For the same compound, the “Percent of Luminescence Remaining” value (LucPpe2m146; LucPpe2m146, 0.02%, 34 min (times of Table I r67)) was 99.53%, the “Average Relative Light Units” value (LucPpe2m146; LucPpe2m146, 0.02%, 65 min (head r67)) was 28651.97 rlu and the “Percent of Luminescence Remaining” value (LucPpe2m146; LucPpe2m146, 0.02%, 65 min (times of Table I r67)) was 99.73%. For the same compound, the “Average Relative Light Units” value (LucPpe2m146; LucPpe2m146, 0.02%, 115 min (head r67)) was 26062.30 rlu, the “Percent of Luminescence Remaining” value (LucPpe2m146; LucPpe2m146, 0.02%, 115 min (times of Table I r67)) was 90.71% and the “Average Relative Light Units” value (LucPpe2m146; LucPpe2m146, 0.02%, 175 min (head r67)) was 27941.73 rlu. The “Percent of Luminescence Remaining” value (LucPpe2m146; LucPpe2m146, 0.02%, 175 min (times of Table I r67)) was 97.26%, the “Average Relative Light Units” value (LucPpe2m146; LucPpe2m146, 0.02%, 238 min (head r67)) was 27677.9 rlu and the “Percent of Luminescence Remaining” value (LucPpe2m146; LucPpe2m146, 0.02%, 238 min (times of Table I r67)) was 96.34%. The “Average Relative Light Units” value (LucPpe2m146; LucPpe2m146, 0.02%, 286 min (head r67)) was 27808.3 rlu, the “Percent of Luminescence Remaining” value (LucPpe2m146; LucPpe2m146, 0.02%, 286 min (times of Table I r67)) was 96.79% and the “Average Relative Light Units” value (LucPpe2m146; LucPpe2m146, 0.1%, 1.0 min (head r54)) was 20132.47 rlu. For the same compound, the “Percent of Luminescence Remaining” value (LucPpe2m146; LucPpe2m146, 0.1%, 1.0 min (times of Table I r54)) was 100.00%, the “Average Relative Light Units” value (LucPpe2m146; LucPpe2m146, 0.1%, 34 min (head r54)) was 20574.63 rlu and the “Percent of Luminescence Remaining” value (LucPpe2m146; LucPpe2m146, 0.1%, 34 min (times of Table I r54)) was 102.20%. The “Average Relative Light Units” value (LucPpe2m146; LucPpe2m146, 0.1%, 65 min (head r54)) was 20800.80 rlu, the “Percent of Luminescence Remaining” value (LucPpe2m146; LucPpe2m146, 0.1%, 65 min (times of Table I r54)) was 103.32% and the “Average Relative Light Units” value (LucPpe2m146; LucPpe2m146, 0.1%, 115 min (head r54)) was 19908.30 rlu. For the same compound, the “Percent of Luminescence Remaining” value (LucPpe2m146; LucPpe2m146, 0.1%, 115 min (times of Table I r54)) was 98.89%, the “Average Relative Light Units” value (LucPpe2m146; LucPpe2m146, 0.1%, 175 min (head r54)) was 20760.93 rlu and the “Percent of Luminescence Remaining” value (LucPpe2m146; LucPpe2m146, 0.1%, 175 min (times of Table I r54)) was 103.12%. The “Average Relative Light Units” value (LucPpe2m146; LucPpe2m146, 0.1%, 238 min (head r54)) was 19758.4 rlu, the “Percent of Luminescence Remaining” value (LucPpe2m146; LucPpe2m146, 0.1%, 238 min (times of Table I r54)) was 98.14% and the “Average Relative Light Units” value (LucPpe2m146; LucPpe2m146, 0.1%, 286 min (head r54)) was 19659.10 rlu. The “Percent of Luminescence Remaining” value (LucPpe2m146; LucPpe2m146, 0.1%, 286 min (times of Table I r54)) was 97.65%, the “Average Relative Light Units” value (LucPpe2m146; LucPpe2m146, 0.5%, 15 min (head r41)) was 5.496 rlu and the “Percent of Luminescence Remaining” value (LucPpe2m146; LucPpe2m146, 0.5%, 15 min (times of Table I r41)) was 100.00%. The “Average Relative Light Units” value (LucPpe2m146; LucPpe2m146, 0.5%, 72 min (head r41)) was 3.141 rlu, the “Percent of Luminescence Remaining” value (LucPpe2m146; LucPpe2m146, 0.5%, 72 min (times of Table I r41)) was 57.16% and the “Average Relative Light Units” value (LucPpe2m146; LucPpe2m146, 0.5%, 124 min (head r41)) was 2.769 rlu. The “Percent of Luminescence Remaining” value (LucPpe2m146; LucPpe2m146, 0.5%, 124 min (times of Table I r41)) was 50.39%, the “Average Relative Light Units” value (LucPpe2m146; LucPpe2m146, 0.5%, 190 min (head r41)) was 2.563 rlu and the “Percent of Luminescence Remaining” value (LucPpe2m146; LucPpe2m146, 0.5%, 190 min (times of Table I r41)) was 46.64%. For the same compound, the “Average Relative Light Units” value (LucPpe2m146; LucPpe2m146, 0.5%, 251 min (head r41)) was 2.766 rlu, the “Percent of Luminescence Remaining” value (LucPpe2m146; LucPpe2m146, 0.5%, 251 min (times of Table I r41)) was 50.32% and the “Half-life of Luminescence Activity” value (LucPpy; Common firefly luciferase (P. pyralis), conc. 0.500) was “no activity”. For the same compound, the “Average Relative Light Units” value (LucPpy; 0.02%, 0.75 min (head r32)) was 4513.320 rlu, the “Percent of Luminescence Remaining” value (LucPpy; 0.02%, 0.75 min (times of Table I r32)) was 100.00% and the “Average Relative Light Units” value (LucPpy; 0.02%, 38 min (head r32)) was 3761.940 rlu. The “Percent of Luminescence Remaining” value (LucPpy; 0.02%, 38 min (times of Table I r32)) was 99.53%, the “Average Relative Light Units” value (LucPpy; 0.02%, 70 min (head r32)) was 3363.410 rlu and the “Percent of Luminescence Remaining” value (LucPpy; 0.02%, 70 min (times of Table I r32)) was 74.52%. For the same compound, the “Average Relative Light Units” value (LucPpy; 0.02%, 94 min (head r32)) was 3229.340 rlu, the “Percent of Luminescence Remaining” value (LucPpy; 0.02%, 94 min (times of Table I r32)) was 71.55% and the “Average Relative Light Units” value (LucPpy; 0.02%, 122 min (head r32)) was 3082.030 rlu. The “Percent of Luminescence Remaining” value (LucPpy; 0.02%, 122 min (times of Table I r32)) was 68.2%, the “Average Relative Light Units” value (LucPpy; 0.1%, 0.75 min (head r18)) was 0.307 rlu and the “Percent of Luminescence Remaining” value (LucPpy; 0.1%, 0.75 min (times of Table I r18)) was 100.00%. The “Average Relative Light Units” value (LucPpy; 0.1%, 10 min (head r18)) was 0.009 rlu, the “Percent of Luminescence Remaining” value (LucPpy; 0.1%, 10 min (times of Table I r18)) was 2.93% and the “Average Relative Light Units” value (LucPpy; 0.1%, 36 min (head r18)) was 0.005 rlu. For the same compound, the “Percent of Luminescence Remaining” value (LucPpy; 0.1%, 36 min (times of Table I r18)) was 1.55%, the “Average Relative Light Units” value (LucPpy; 0.5%, 0.75 min (head r5)) was 0.018 rlu and the “Percent of Luminescence Remaining” value (LucPpy; 0.5%, 0.75 min (times of Table I r5)) was 100.00%.
